Source: US9480649B2, “Lipid microparticle growth factor formulations” (Biopharm Gesellschaft zur biotechnologischen Entwicklung …, priority 2006, dated 2016)
≈ marks a conversion by molar mass, not a printed value. Read-outs that look alike come from different tables or passages of the source. Peptide text beside a SMILES is read from it.

Columns and labels:
[1] = for concentration prepared and stabilized using the lipid microparticle formulation: pH 7
Procedure: The tube was vortexed briefly. • c. The sample was placed in an ice-ethanol bath to maintain a temperature of approximately 4° C. • d. The tip of a probe sonicator was placed just above the bottom of the microcentrifuge tube. It was confirmed that the sonicator tip was not touching the sides or the bottom of the tube. • e. The sample was sonicated for 2 h at setting 10 on a 25% duty cycle with a period of 20 sec, producing an average power output of 22 watts. • f. The ice-ethanol bath was changed every 12 min to maintain temperature. • g. […] The solution was centrifuged for 4 min at 12,000 rpm to remove any metal particulates left by the probe tip. • i. 1 ml of the LMP was transferred to a clean 1.5 microcentrifuge tube.
Polyphenols are a group of chemical substances found in plants, characterized by the presence of more than one phenol group per molecule. The term comprises tannins, lignins and flavonoids. […] Myricetin (C15H10O8, MW 318.24) is a naturally occurring flavonoid found in many food sources known to have antioxidant and anti-inflammatory properties. […] Despite its therapeutic potential, myricetin has very limited water solubility. […] In an effort to increase the solubility of myricetin to enhance its therapeutic potential, myricetin was incorporated into lipid microparticles as follows: • j. 1 mg myricetin was added to the tube and vortexed to combine. […] The myricetin mixture was again placed over the ice-ethanol bath and fitted with the probe sonicator. • l. The mixture was sonicated on the same settings for 2.5 h, again replacing the ice-ethanol bath every 12-15 min. • m. […] The solution was centrifuged again for 5 min at 12,000 rpm to remove any metal particulates. • o. The solution was then titrated to pH 7 with 1 M NaOH.
In an effort to increase solubility, Vitamin E was incorporated into lipid LMP as follows: • j. 5 uL (4.65 mg) of vitamin E was added to the tube and vortexed to combine. • k. The Vitamin E mixture was placed over the ice-ethanol bath again and fitted with the probe sonicator. • l. The mixture was sonicated on the same settings for 2.5 h, again replacing the ice-ethanol bath every 12-15 min. • m. […] The solution was centrifuged again for 4 min at 12,000 rpm to remove any metal particulates. • o. The solution was then titrated to pH 7 with 1 M NaOH.
In an effort to increase the solubility of Leu-Leu-Leu to enhance it's therapeutic potential, Leu-Leu-Leu was incorporated into lipid microparticles as follows: • j. 8 mg Leu-Leu-Leu was added to the tube and vortexed to combine. […] The Leu-Leu-Leu mixture was again placed over the ice-ethanol bath and fitted with the probe sonicator. • l. The mixture was sonicated on the same settings for 2.5 h, again replacing the ice-ethanol bath every 12-15 min. • m. […] The solution was centrifuged again for 5 min at 12,000 rpm to remove any metal particulates. • o. The solution was then titrated to pH 7 with 1 M NaOH.

[2] = Solubility in water; format: physicochemical; conditions: based on our own results
[3] = Solubility of GDF-5 in organic solvents (RP-HPLC of supernatant after centrifugation); format: physicochemical; conditions: dichlormethane, acetonitrile and DMSO solutions, centrifuged
Excerpt: The inventors of the present application have proceeded with an extensive investigation in order to overcome the above described problems. […] Hydrophobic drugs are very often highly soluble in the volatile organic solvents. […] After adding GDF-5, dichlormethane, acetonitrile and DMSO solutions were centrifuged and the GDF-5 content of the supernatant was checked with RP-HPLC.
After adding GDF-5, solutions were centrifuged and the GDF-5 content of supernatant was checked with RP-HPLC.

[4] = rat, in vivo
Procedure: Rats were anesthetized with sodium pentobarbital (50 mg/kg intraperitoneal), and given additional doses as needed. Rats were placed on their back, and body temperature was maintained with a heating pad (rectal thermal probe set at 37° C.). Prior to onset of drug delivery, the descending aorta was cannulated for all experimental groups.
GDF-5 Administration: GDF-5 was ^125I labelled and formulated in 20 mM sodium acetate buffer at a pH of 4.25. For intranasal administration, a mixture of ^125I-GDF-5 and unlabeled GDF-5 was delivered as 10 μL drops alternating nares every two minutes with an average total volume of 113 μL (7.0 nmol and 38 pCi). A second formulation of GDF-5 for intranasal delivery was prepared in 200 mM sodium acetate buffer at pH 4.0 and delivered as an average total volume of 91 μL (5.2 nmol, 28 uCi). For intravenous administration, a mixture of ^125I-GDF-5 and unlabeled GDF-5 was delivered as an injection into the tail vein. […]
Measurement of ^125I-labelled GDF-5 with gamma counting: Peripheral and CNS rat tissues were dissected into anatomical areas. […] The concentration of GDF-5 in each tissue sample (nM) was calculated using the counts per minute, tissue weight, and specific activity measurements from standard samples of the GDF-5 mixture delivered.

[5] = cited from earlier work
[6] = system: cultured midbrain neurons; conditions: cited from earlier work
[7] = cited from earlier work; remark: listed apart in the source

Vitamin E
increase of aqueous solubility at neutral pH using the LMP formulation [1]: increased greatly | concentration prepared and stabilized using the lipid microparticle formulation [1]: 4650 µg/mL

O=c1c(O)c(-c2cc(O)c(O)c(O)c2)oc2cc(O)cc(O)c12 [myricetin]
solubility [2]: 65 µg/mL (≈ 0.204 mM) | increase of aqueous solubility at neutral pH using the LMP formulation [1]: 15.4 fold | concentration prepared and stabilized using the lipid microparticle formulation ([1]; 2.5 h): 1000 µg/mL

growth and differentiation factor-5 [GDF-5]
retrieval percentage of GDF-5 in supernatant [3]: below 15% | blood exposure, intravenous relative to intranasal [4]: twice as great | midbrain concentration, intravenous relative to intranasal [4]: less than half | pH threshold for solubility ([5]; aqueous solutions of GDF-5): 4.3 | pH above which the protein starts precipitating ([5]; aqueous solutions, profile shown in EP 1 462 126): above 4.25 | concentration at which neuroprotective effects have been demonstrated [6]: 1 nM

beta amyloid 1-42
solubility in aqueous solution ([7]; pH 3): very soluble | solubility in aqueous solution ([7]; pH 7): essentially insoluble | solubility in aqueous solution ([7]; physiological pH, e.g., pH 7.4): very low solubility

CC(C)C[C@H](NC(=O)[C@H](CC(C)C)NC(=O)[C@@H](N)CC(C)C)C(=O)O [Leu-Leu-Leu] (H-Leu-Leu-Leu-OH; N-terminus and C-terminus assumed)
solubility [2]: ~2500 µg/mL (≈ 6.99 mM) | increase of aqueous solubility at neutral pH using the LMP formulation [1]: over three-fold | concentration prepared and stabilized using the lipid microparticle formulation [1]: 8000 µg/mL
